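A five-concentration, 48-hour dose response in 96-well plates underlies each endpoint, interpolated linearly between surrounding concentrations. GI50: concentration for 50% inhibition of growth.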 Active and inactive are the calls of the source. Cut-off read from the data, not from the text of the source: active = GI50 up to about 1.1 µM and inactive = higher.
Assays:
Test in all cases: NCI tumour cell line growth inhibition, 48 h
[1] = tested on: MDA-MB-231
[2] = tested on: A549
[3] = tested on: HCT-15
[4] = tested on: NCI-H226
[5] = tested on: HOP-92
[6] = tested on: K562
[7] = tested on: HOP-62
[8] = tested on: A498
[9] = tested on: NCI/ADR-RES
[10] = tested on: SF-295
[11] = tested on: Malme-3M
[12] = tested on: 786-0
[13] = tested on: SN12C
[14] = tested on: RPMI-8226
[15] = tested on: OVCAR-5
[16] = tested on: COLO 205
[17] = tested on: OVCAR-4
[18] = tested on: Hs-578T
[19] = tested on: SR
[20] = tested on: T47D
[21] = tested on: HT-29
[22] = tested on: SNB-19
[23] = tested on: MOLT-4
[24] = tested on: MDA-MB-435
[25] = tested on: SK-OV-3
[26] = tested on: OVCAR-3
[27] = tested on: UO-31
[28] = tested on: SK-MEL-5
[29] = tested on: SK-MEL-28
[30] = tested on: ACHN
[31] = tested on: SK-MEL-2
[32] = tested on: SNB-75
[33] = tested on: EKVX
[34] = tested on: LOX IMVI
[35] = tested on: HCT-116
[36] = tested on: BT-549
[37] = tested on: SW-620
[38] = tested on: NCI-H23
[39] = tested on: UACC-257
[40] = tested on: TK-10
[41] = tested on: PC-3
[42] = tested on: OVCAR-8
[43] = tested on: U-251
[44] = tested on: UACC-62
[45] = tested on: CAKI-1
[46] = tested on: DU-145
[47] = tested on: CCRF-CEM
[48] = tested on: M14
[49] = tested on: KM12
[50] = tested on: NCI-H522
[51] = tested on: MCF7
[52] = tested on: MDA-N
[53] = tested on: IGROV-1
[54] = tested on: RXF 393
[55] = tested on: HL-60
[56] = tested on: HCC 2998
[57] = tested on: SF-268
[58] = tested on: SF-539
[59] = tested on: NCI-H460

With `C=CCNS(=O)(=O)c1ncnc2[nH]cnc12` the GI50 [1] was > 100 µM (inactive), the GI50 [2] was > 100 µM (inactive) and the GI50 [3] was > 100 µM. The GI50 [4] was > 100 µM (inactive), the GI50 [5] was 5.75 µM (inactive) and the GI50 [6] was 10.5 µM (inactive). The GI50 [7] was > 100 µM (inactive), the GI50 [8] was > 100 µM (inactive) and the GI50 [9] was > 100 µM (inactive). For the same compound, the GI50 [10] was > 100 µM (inactive), the GI50 [11] was > 100 µM (inactive) and the GI50 [12] was > 100 µM (inactive). The GI50 [13] was 55.6 µM (inactive), the GI50 [14] was 11.8 µM (inactive) and the GI50 [15] was > 100 µM (inactive). The GI50 [16] was > 100 µM (inactive), the GI50 [17] was > 100 µM (inactive) and the GI50 [18] was > 100 µM (inactive). The GI50 [19] was 69.8 µM (inactive), the GI50 [20] was > 100 µM (inactive) and the GI50 [21] was > 100 µM (inactive). The GI50 [22] was > 100 µM (inactive), the GI50 [23] was 14.2 µM (inactive) and the GI50 [24] was > 100 µM (inactive). For the same compound, the GI50 [25] was > 100 µM (inactive), the GI50 [26] was > 100 µM (inactive) and the GI50 [27] was > 100 µM (inactive). The GI50 [28] was > 100 µM (inactive), the GI50 [29] was > 100 µM (inactive) and the GI50 [30] was > 100 µM (inactive). For the same compound, the GI50 [31] was > 100 µM (inactive), the GI50 [32] was > 100 µM (inactive) and the GI50 [33] was > 100 µM (inactive). For the same compound, the GI50 [34] was 67.9 µM (inactive), the GI50 [35] was > 100 µM (inactive) and the GI50 [36] was > 100 µM (inactive). For the same compound, the GI50 [37] was > 100 µM (inactive), the GI50 [38] was > 100 µM (inactive) and the GI50 [39] was > 100 µM (inactive). For the same compound, the GI50 [40] was > 100 µM (inactive), the GI50 [41] was > 100 µM (inactive) and the GI50 [42] was > 100 µM (inactive). For the same compound, the GI50 [43] was > 100 µM (inactive), the GI50 [44] was > 100 µM (inactive) and the GI50 [45] was 26.2 µM (inactive). The GI50 [46] was > 100 µM (inactive), the GI50 [47] was > 100 µM (inactive) and the GI50 [48] was > 100 µM (inactive). The GI50 [49] was > 100 µM (inactive), the GI50 [50] was > 100 µM (inactive) and the GI50 [51] was > 100 µM (inactive). The GI50 [52] was 82.8 µM (inactive), the GI50 [53] was > 100 µM (inactive) and the GI50 [54] was 59.7 µM (inactive).
`CCOC(=O)CCC(NC(=O)Cc1ccc(Nc2nc3ccccc3nc2-c2cccs2)cc1)C(=O)OCC` (centres undefined) was tested, and the GI50 [1] was > 100 µM (inactive), the GI50 [2] was 64.1 µM (inactive) and the GI50 [3] was > 100 µM. The GI50 [4] was > 100 µM (inactive), the GI50 [6] was > 100 µM (inactive) and the GI50 [7] was 31.9 µM (inactive). The GI50 [8] was 69.7 µM (inactive), the GI50 [9] was 61.8 µM (inactive) and the GI50 [10] was 53.2 µM (inactive). For the same compound, the GI50 [11] was 49.8 µM (inactive), the GI50 [12] was 29.6 µM (inactive) and the GI50 [55] was > 100 µM (inactive). The GI50 [13] was > 100 µM (inactive), the GI50 [56] was > 100 µM (inactive) and the GI50 [14] was > 100 µM (inactive). For the same compound, the GI50 [15] was > 100 µM (inactive), the GI50 [16] was > 100 µM (inactive) and the GI50 [17] was 27.4 µM (inactive). For the same compound, the GI50 [18] was 25.1 µM (inactive), the GI50 [19] was 29.3 µM (inactive) and the GI50 [20] was 10.9 µM (inactive). The GI50 [21] was > 100 µM (inactive), the GI50 [22] was 24.7 µM (inactive) and the GI50 [23] was > 100 µM (inactive). For the same compound, the GI50 [57] was 24 µM (inactive), the GI50 [24] was 38.1 µM (inactive) and the GI50 [58] was 24.9 µM (inactive). For the same compound, the GI50 [25] was 40.8 µM (inactive), the GI50 [26] was 34 µM (inactive) and the GI50 [27] was > 100 µM (inactive). For the same compound, the GI50 [28] was 37.4 µM (inactive), the GI50 [29] was > 100 µM (inactive) and the GI50 [30] was > 100 µM (inactive). The GI50 [31] was 54.3 µM (inactive), the GI50 [32] was 18.1 µM (inactive) and the GI50 [33] was 53.7 µM (inactive). For the same compound, the GI50 [35] was > 100 µM (inactive), the GI50 [36] was > 100 µM (inactive) and the GI50 [37] was > 100 µM (inactive). For the same compound, the GI50 [38] was 30.1 µM (inactive), the GI50 [39] was 79.3 µM (inactive) and the GI50 [40] was 23.5 µM (inactive). The GI50 [41] was 45.7 µM (inactive), the GI50 [43] was 28.1 µM (inactive) and the GI50 [44] was 64.6 µM (inactive). For the same compound, the GI50 [45] was > 100 µM (inactive), the GI50 [46] was 44.2 µM (inactive) and the GI50 [47] was > 100 µM (inactive). For the same compound, the GI50 [48] was > 100 µM (inactive), the GI50 [49] was > 100 µM (inactive) and the GI50 [50] was 32 µM (inactive). For the same compound, the GI50 [51] was 41.1 µM (inactive), the GI50 [52] was > 100 µM (inactive) and the GI50 [54] was 12.9 µM (inactive). The GI50 [59] was 81.3 µM (inactive).

Source: ChEMBL document CHEMBL1201862, “PubChem BioAssay data set” (2004)
